Test results from ChEMBL document CHEMBL1134673, “Modeling of poly(ADP-ribose)polymerase (PARP) inhibitors. Docking of ligands and quantitative structure-activity relationship analysis” (J Med Chem, 2001).
pIC50: −log10 of the molar value.

Columns and labels:
[1] = biological target: Poly [ADP-ribose] polymerase 1 (Homo sapiens, UniProt P09874)
Description: The compound was tested for poly(ADP-ribose)-polymerase (PARP) inhibition

[2] = poly(ADP-ribose)-polymerase (PARP) inhibition

Chain of Poly [ADP-ribose] polymerase 1 (P09874 whole entry): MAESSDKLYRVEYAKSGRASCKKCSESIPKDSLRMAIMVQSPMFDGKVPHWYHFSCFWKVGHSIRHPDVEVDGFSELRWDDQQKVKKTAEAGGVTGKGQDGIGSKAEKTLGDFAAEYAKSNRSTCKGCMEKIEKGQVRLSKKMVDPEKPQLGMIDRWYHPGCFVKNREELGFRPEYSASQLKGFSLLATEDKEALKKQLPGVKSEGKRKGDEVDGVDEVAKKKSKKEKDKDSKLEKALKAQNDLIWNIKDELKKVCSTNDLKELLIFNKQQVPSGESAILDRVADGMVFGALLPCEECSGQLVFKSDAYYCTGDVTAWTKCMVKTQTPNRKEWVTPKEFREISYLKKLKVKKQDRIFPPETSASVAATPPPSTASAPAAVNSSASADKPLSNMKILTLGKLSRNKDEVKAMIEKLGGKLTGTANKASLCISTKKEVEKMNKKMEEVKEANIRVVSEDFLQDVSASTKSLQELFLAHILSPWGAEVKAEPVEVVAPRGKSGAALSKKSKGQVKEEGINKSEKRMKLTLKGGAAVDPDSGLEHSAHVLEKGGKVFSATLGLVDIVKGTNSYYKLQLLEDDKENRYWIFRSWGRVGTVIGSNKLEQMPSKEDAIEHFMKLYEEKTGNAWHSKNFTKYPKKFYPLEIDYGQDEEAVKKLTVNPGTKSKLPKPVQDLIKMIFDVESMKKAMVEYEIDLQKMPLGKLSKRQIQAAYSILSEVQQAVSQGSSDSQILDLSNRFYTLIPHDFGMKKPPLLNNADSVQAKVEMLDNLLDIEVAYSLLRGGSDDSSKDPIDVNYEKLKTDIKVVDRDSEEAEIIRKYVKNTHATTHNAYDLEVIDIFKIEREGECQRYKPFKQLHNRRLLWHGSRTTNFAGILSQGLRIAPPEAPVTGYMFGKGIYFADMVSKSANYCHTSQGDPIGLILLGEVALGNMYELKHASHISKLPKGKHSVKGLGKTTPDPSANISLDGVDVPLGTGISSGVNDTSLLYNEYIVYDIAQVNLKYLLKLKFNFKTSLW

Structure (SMILES) | pIC50 [1] | pIC50 [2]
NC(=O)c1ccc(Cl)cc1 | 3.52 | 
CN(C)c1cccc(C(N)=O)c1 | 3.92 | 
Cc1cccc(C(N)=O)c1 | 4.72 | 
NC(=O)c1ccc(O)cc1 | 3.55 | 
Cc1cccc2c(O)nc(-c3ccc(C#N)cc3)nc12 |  | 6.57
COc1cccc2c(O)nc(-c3ccc(C(F)(F)F)cc3)nc12 |  | 4.41
Cc1cccc2c(O)nc(-c3ccccc3)nc12 |  | 6.06
COc1cccc2c(O)nc(-c3ccc([N+](=O)[O-])cc3)nc12 |  | 6.07
Cc1cccc2c(O)nc(-c3ccc(O)cc3)nc12 |  | 6.66
NC(=O)c1ccc(F)cc1 | 3.70 | 
NC(=O)c1cccc(F)c1 | 4.70 | 
Nc1ccc(-c2nc(O)c3cccc(O)c3n2)cc1 |  | 6.28
COc1cccc2c(O)nc(-c3ccccc3)nc12 |  | 5.38
COc1ccc(-c2nc(O)c3cccc(C)c3n2)cc1 |  | 6.72
NC(=O)c1ccc(N)cc1 | 2.74 | 
O=[N+]([O-])c1ccc(-c2nc(O)c3cccc(O)c3n2)cc1 |  | 6.64
NC(=O)c1cccc([N+](=O)[O-])c1 | 3.80 | 
NC(=O)c1ccc(Br)cc1 | 2.66 | 
COc1cccc2c(O)nc(-c3ccc(C#N)cc3)nc12 |  | 5.87
NC(=O)c1cccc(O)c1 | 5.04 | 
O=c1[nH]c2ccccc2c2ccccc12 | 6.52 | 
O=c1[nH]c2ccc([N+](=O)[O-])cc2c2ccccc12 | 6.46 | 
Cc1cccc2c(O)nc(-c3ccc(N)cc3)nc12 |  | 6.36
NC(=O)c1ccccc1 [BENZAMIDE] | 4.66 | 
O=c1[nH]ncc2ccccc12 [PHTHALAZINONE] | 4.92 | 
O=c1[nH]cnc2ccccc12 [QUINAZOLINONE] | 5.02 | 
